CC(C)[C@@H](C)[C@@H](O)[C@H](O)[C@@H](C)[C@H]1CC[C@H]2[C@@H]3COC(=O)[C@H]4C[C@H](O)[C@H](O)C[C@]4(C)[C@H]3CC[C@]12C
solubility (mole fraction)
Conditions	283.15 K	288.15 K	293.15 K	298.15 K	303.15 K	308.15 K	313.15 K	318.15 K	323.15 K
in acetone	0.00144	0.00176	0.00207	0.0024	0.00273	0.00303	0.00334	0.00365	0.00405
in acetonitrile	0.000162	0.000206	0.000258	0.000322	0.000399	0.000491	0.0006	0.000728	0.000879
in ethanol	0.00219	0.00241	0.00296	0.0032	0.00356	0.00409	0.00476	0.00551	0.00634
in isopropanol	0.00136	0.00169	0.00209	0.00256	0.00312	0.00396	0.00464	0.00564	0.00667
